From patent US20050143356A1, “Selective inhibition of cyclooxygenase 1 in the treatment of diabetic nephropathy” (Vanderbilt University, priority 2003, published 2005)

Legend:
C57BLKS db/db mice [1] = test: Body weight gain, blood sugar and glycosylated hemoglobin in diabetic db/db mice; conditions: diabetic db/db mice vs. vehicle treated controls, 6 months
Excerpt: (§1) The C57BLKS db/db mice is a rodent model of type II diabetes mellitus. A LepR^db (db) mutation on chromosome 4 (G→T point mutation) has been identified in the leptin receptor gene. This mutation generates a new donor splice site, leading to prematurely termination of the intracellular domain of leptin receptor and lack of leptin signal transduction. C57BLKS db/db strain is more susceptible to the development of diabetic nephropathy than the C57BL/6J db/db strain. Animals are characterized by obesity, insulin resistance, diabetes and diabetic nephropathy (DN). […] Pathologic changes include mesangial matrix expansion (>50% increase in the majority of glomeruli) and GBM thickening >25%, absence of GBM electron dense material by EM, arteriolar hyalinosis (any degree) and tubulo-interstitial fibrosis.
Inhibitor was given for 6 months, while the control diabetic mice were given vehicle alone (n=8 per group). Blood samples were drawn for analysis of glucose and glycosylated hemoglobin (HbA1c) monthly. The urine samples were collected monthly and albumin/creatinine ratio was determined by enzyme linked immunosorbent assays (Exocell Inc, PA, USA). Glomerular filtration rate (GFR) was determined using FITC-inulin clearance based on plasma elimination rate following single bolus intravenous injection.
(§2) Cyclooxygenase-1 (COX-1) is also abundantly expressed in the kidney, however its role in health and disease remains poorly defined. […] Diabetic mice were provide the COX-1 inhibitor for 6 months, while control diabetic mice given vehicle alone. […] Glomerular filtration rate was also determined using FITC-inulin clearance.

C57BLKS db/db mice [2] = test: Kidney histopathology (mesangial expansion) in diabetic db/db mice; format: in vivo, mouse; conditions: treated vs. untreated (severe mesangial expansion in untreated)
Excerpt: as §1, §2

COc1ccc(-n2nc(C(F)(F)F)cc2-c2ccc(Cl)cc2)cc1 [SC8560]
effect on Hb1C (C57BLKS db/db mice [1]): did not affect | effect on blood sugar (C57BLKS db/db mice [1]): did not affect | effect on body weight gain (C57BLKS db/db mice [1]): did not affect | mesangial expansion (histopathology) (C57BLKS db/db mice [2]): less pronounced
